In BindingDB's records for patent US9242996 (Novartis, 2016):

Biological target: Mitogen-activated protein kinase 1 (Homo sapiens, UniProt P28482)
Test: Kinase Assay (New)
Conditions: pH 7.5
Method: Compound dilution series are prepared in 100% DMSO. ERK2 is preincubated with compounds for 30 minutes at ambient temperature. Reaction is initiated by addition of a substrate cocktail of ERKtide peptide and ATP and is allowed to proceed for 2-3 hours at ambient temperature. […] Terminated reactions are read, after overnight incubation in the dark, on an EnVision Multilabel Plate Reader (PerkinElmer, Waltham, Mass.), with excitation and emission wavelengths set to 680 nm and 570 nm, respectively. IC50 values are determined using a four-parameter fit.

Mitogen-activated protein kinase 1, sequence (P28482 whole entry): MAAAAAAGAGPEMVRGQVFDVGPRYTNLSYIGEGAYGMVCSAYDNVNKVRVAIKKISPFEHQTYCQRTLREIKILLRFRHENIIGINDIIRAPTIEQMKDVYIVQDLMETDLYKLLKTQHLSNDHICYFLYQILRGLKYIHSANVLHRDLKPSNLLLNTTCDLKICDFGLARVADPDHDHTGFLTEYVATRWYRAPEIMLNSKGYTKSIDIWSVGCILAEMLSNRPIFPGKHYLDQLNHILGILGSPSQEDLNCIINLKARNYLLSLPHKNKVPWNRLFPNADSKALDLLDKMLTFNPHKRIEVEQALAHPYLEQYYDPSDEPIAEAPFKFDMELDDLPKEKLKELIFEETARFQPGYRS

- IC50: 7.33 nM
SMILES: Cc1nn(C)cc1-c1cnc(N)c(-c2ccc(C(=O)NCc3cccc(S(C)(=O)=O)c3)c(F)c2)n1 [US9242996, 145]
